Laboratory results reported in article PMC8399913, “Development of Arteannuin B Sustained-Release Microspheres for Anti-Tumor Therapy by Integrated Experimental and Molecular Modeling Approaches” (Pharmaceutics, 2021).
Read-outs that look alike come from different tables or passages of the source.

Columns and labels:
A549 xenograft tumor = experiment: In vivo anti-tumor activity, A549 xenograft tumor model; design: species or system BALB/c nude mice; settings: 3 mg/kg once every 3 d; after four weeks
Experimental: A549 xenograft tumor model was obtained by subcutaneously injecting 1 × 10^6 cells (A549) into BALB/c nude mice. When the average size of the tumor reached about 100 mm^3, the tumor-bearing mice were randomly divided into 6 groups (6 mice in each group). The average size of tumors was calculated according to the equation 0.5 × a × b × b (a is the length, b is the width). The 700, 350, and 175 mg/kg dose groups of the ABMs were suspended in a specific solvent and then administered subcutaneously once a week, 4 times in total. […] The vehicle (microsphere without AB) group was given once a week for a total of 4 times. The model (saline) group was given once a day as a control. Meanwhile, a group of mice without any treatment (WT group) was selected as the standard group for comparison. The changes in food intake, water consumption, and mental state of the nude mice were observed and recorded every day after administration. The body weight and tumor size of the tumor-bearing mice were measured twice a week, and the relative tumor volume (RTV) of the nude mice was calculated by Equation (7). RTV = Vt/V0(7) where Vt is the tumor volume at each measurement and V0 is the tumor volume before administration. The relative tumor growth rate T/C (%) was calculated according to the following equation to evaluate the anti-tumor activity of each group. (8) T/C(%)=TRTV/CRTV×100%

[1] = PK study in SD rats (AB plasma concentration by LC-MS); format: in vivo, Sprague-Dawley rats; settings: 3.5 mg/kg; for Cmax / half-life: Sprague-Dawley, rat, plasma
Experimental: There were 9 SD rats equally separated into three groups. The first two groups were injected with AB at a dose of 3.5 mg/kg, through different injection routes, either subcutaneous or intramuscular injections. Collect whole blood from the jugular vein of each rat one day before administration and 0, 0.08, 0.16, 0.25, 0.5, 1, 2, 4, 6, and 24 h after administration. The third group was a subcutaneous injection of ABMs with a dose of 50 mg/kg. The whole blood was collected from the jugular vein of each rat one day before the administration and 0.08, 0.25, 0.5, 1, 2, 4, 6, 24, 72, 168, and 240 h after administration. A 1.0 mL disposable syringe was used, and the blood volume was 0.2 mL each time. The whole blood sample was placed in a centrifuge tube (1.5 mL, Xinkang Medical, Taizhou, Jiang Su, China) containing 2000 KIU aprotinin and EDTA-K2 anticoagulant. Turn the centrifuge tube upside down to mix the anticoagulant with the blood thoroughly. Before centrifugation, it should be stored in a pre-cooled CoolRack module (Rack M30, Corning, NY, USA) on wet ice and centrifuged within 15 min after collection. Centrifugation was performed at 4000 rpm, 15 min, 4 °C. After centrifugation, the plasma was separated, the supernatant transferred to the label sample tube (the transfer process needs to be operated on ice), and the sample was checked and stored in the −80 °C refrigerator until analysis.
LC-MS spectrometry (TQ XS, Waters, Milford, MA, USA) was used to detect the plasma concentration of AB. The electrospray ion source (ESI+) in positive ion mode has an ion source temperature of 150 °C, a solvent removal temperature of 500 °C, and a capillary voltage of 0.5 kV. Multiple reaction monitoring (MRM) mass spectrometry parameters are: AB, m/z 249.1→189.1, cone voltage 20 V, collision voltage 10 eV; aripiprazole-D8 (internal reference), m/z 456.3→293.2, the cone voltage is 20 V, and the collision voltage is 25 eV.
SD male rat plasma 50 μL and 200 μL of precipitant (0.1% formic acid in acetonitrile, containing 0.2 ng/mL aripiprazole-D8 as an internal reference) was added into a 96-well plate, and the plate was shaken at 750 rpm (Compact Digital MicroPlate Shaker, Thermo fisher, Waltham, MA, USA) for 10 min. Next, the sample was centrifuged (Legend Micro 21R, Thermo fisher, Waltham, MA, USA) at 4200 rpm for 25 min. After centrifugation, 60 μL of the supernatant was added to a 96-well plate, and then 140 μL of pure water was added, and the plate was shaken at 750 rpm for 5 min before the sample was injected for detection.
HPLC was equipped with a C18 column (Waters, BEH, 130 Å, 2.1 × 50 mm, 1.7 μm), and the mobile phase consisted of elution A (0.1% w/v citric acid in 5%w acetonitrile aqueous solution) and elution B (0.1% w/v citric acid in 95%w acetonitrile aqueous solution) at the ratio of 70:30 v/v. The flow rate was set at 1 mL/min, and the injection volume was 10 μL. The column temperature was set at 60 °C.

A549 cells = experiment: Anti-tumor cell proliferation activity (MTT method); format: cell-based, human; settings: mean ± SD, n = 3
Experimental: The human non-small cell lung cancer (NSCLC) cell line (A549) was from American Type Culture Collection (ATCC, Manassas, VA, USA). RPMI-1640 medium and fetal calf serum (FBS) were from Gibco Life Technologies (Grand Island, NY, USA). A549 cells were inoculated in RPMI 1640 medium (containing 10% FBS) in a 37 °C, 5% CO2 cell incubator for culture and storage.
A549 cells were seeded into a 96-well plate at a concentration of 5 × 10^3 per well. AB and ABMs were prepared with DMSO and a specific solvent to make the final concentration per well was 6.25, 12.5, 25, 50, and 100 μM. Here, the dosage of AB in ABMs is calculated according to the actual cumulative release amount in the solution, which is calculated as 55% in 96 h. In the experiment, the control group consisted of cells treated with DMSO and a specific solvent of ABMs and cells without any treatment. The MTT method was used to measure the optical density (OD) values of the cells at 24, 48, 72, and 96 h after treatment. The inhibition rate (IR) of each group of samples on tumor cell growth was calculated according to the following equation:(6) IR(%)=OD(solvent)−OD(exp)/OD(solvent)×100% where OD(solvent) is the mean OD of the solvent group and OD(exp) is the mean OD of the experimental group.
A dose–response curve could be obtained with different concentrations of the samples on the tumor cell growth inhibition, from which the half-inhibition concentration (IC50) of the sample can be obtained. There are five replicate holes in each group, and the average value of the five holes was taken. Three parallel experiments were carried out for each sample, and the results were expressed as mean ± standard deviation (mean ± SD). According to the inhibition rate of each group, the IC50 of AB and ABMs at each time point was calculated by the statistical software IBM SPSS Statistics 20.

[2] = tested on: HT-29, HepG2, SGC-7901, A549, K562, B16-F10, and Du145 cells; experiment: Preliminary experiments: tumor cell proliferation; format: cell-based
[3] = tested on: normal human embryonic liver cells L-02; experiment: Preliminary experiments: toxicity to normal cells; format: cell-based
[4] = tested on: mouse lung cancer metastasis models; experiment: Preliminary experiments: mouse lung cancer metastasis models; format: in vivo
[5] = Tolerance of AB dissolved in Tween-80, ethanol and PEG-40; format: in vivo
[6] = cited from earlier work
[7] = design: method as in doi:10.1002/cjoc.19830010106; settings: cited from earlier work

For `N.N.[Cl][Pt][Cl]` [DDP, Cis-platinum diamine-dichloride], the “tumor size (weight of dissected tumor)” value (A549 xenograft tumor) was 0.38 ± 0.04 g.
With `C=C1C(=O)O[C@@]23[C@H]1CC[C@@H](C)[C@@H]2CC[C@@]1(C)O[C@@H]31` [AB, Arteannuin B] the Cmax ([1]; male SD rats, IM, mean ± SEM) was 0.0745 ± 0.0342 µg/mL, the half-life ([1]; male SD rats, IM, mean ± SEM, read-out: t1/2 (converted)) was 2.3 h and the Cmax ([1]; male SD rats, SC, mean ± SEM) was 0.236 ± 0.1 µg/mL. It also gave a half-life ([1]; male SD rats, SC, mean ± SEM, read-out: t1/2 (converted)) of 1.15 h, an AUClast ([1]; male SD rats, IM, mean ± SEM) of 0.618 ± 0.131 ng·days/mL and an AUClast ([1]; male SD rats, SC, mean ± SEM) of 2.538 ± 0.842 ng·days/mL. The half-life ([1]; male, rats, read-out: elimination half-life (converted)) was roughly 1 h, the “AUClast from subcutaneous injection relative to intramuscular injection” value ([1]; rats) was “about four times that of intramuscular injection” and the IC50 (A549 cells; 96 h (day four)) was 16.2 ± 4.78 µM. The IC50 (A549 cells; Homo sapiens, A549, 24 h, 24 h) was 211 ± 63.2 µM, the IC50 (A549 cells; Homo sapiens, A549, 48 h, 48 h) was 53.1 ± 22.5 µM and the IC50 (A549 cells; Homo sapiens, A549, 72 h, 72 h) was 27.5 ± 6.71 µM. The IC50 (A549 cells; Homo sapiens, A549, 96 h, 96 h (day four)) was 16 µM, the “proliferation of tumor cells” value [2] was “inhibit the proliferation” and the “toxicity to normal cells” value [3] was “no obvious toxicity”. For the same compound, the therapeutic effect [4] was “good therapeutic effect”, the tolerance after administration [5] was “significant intolerance symptoms” and the elimination half-life [6] was “about 1 h”. For the same compound, the bioavailability ([6]; in animals) was 19–35% and the antimalarial activity [7] was “no antimalarial activity”.
